Patent US20100075364A1, “METHOD FOR SELECTING MAMMAL TRANSFORMED CELLS” (FOOD AND DRUG SAFETY CENTER, priority 2008, published 2010)

Key:
Bhas 42 cells [1] = test: Selection of Bhas 42 transformed cells by BP treatment and light irradiation; assay type: cell-based, mouse; settings: BP 20 ng/mL + light irradiation 2 J/cm^2 (UVA), observed 24 hours later
Experimental: Whether or not transformed cells can be selected using active oxygens other than hydrogen peroxide was analyzed. Since such active oxygens other than hydrogen peroxide are extremely unstable and have a short life time, they cannot be used as reagents. Accordingly, benzo(a)pyrene (BP) for generating superoxide anion radical as a result of light irradiation was utilized. Transformed foci were induced in Bhas 42 cells (by the method of Example 1), and the medium was then exchanged with a phosphate buffered saline (2 mL/well). […] Using a sunlight simulator, light was applied to the cells (300 to 800 nm; UVA irradiation intensity: 5.6 mW/cm^2; irradiation time: 6 minutes; irradiation dose: 2 J/cm^2), and the medium was then exchanged. Twenty-four hours later, the resultant cells were observed.

Bhas 42 cells [2] = test: Bhas 42 cell transformation test with MCA, hydrogen peroxide method with dye and Giemsa staining; assay type: cell-based, mouse; settings: MCA 0.1, 0.3, 1 μg/mL for 3 days; 0.0015% hydrogen peroxide day 21, alamarBlue or WST-8
Experimental: A basic experiment was carried out as follows. In a Bhas 42 cell transformation test using a 96-well plate (0.1 mL of medium/well), 0.05 mL of a medium containing hydrogen peroxide (in a concentration 3 times higher than the final concentration) was added on the 21st day after cell inoculation. 1 to 24 hours later, 0.05 mL of a medium containing alamarBlue or WST-8 (0.01 mL of dye+0.04 mL of medium) was added.
Whether or not the transformation of Bhas 42 cells could be quantified with a dye was analyzed using MCA. The cells were inoculated (200 cells/0.05 mL of medium/well), and on the following day, 0.05 mL of a medium containing MCA (0.2, 0.6, and 2 μg/mL: all of which were 2 times higher than the final concentrations that were 0.1, 0.3, and 1 μg/mL, respectively) was added thereto. The cells were treated for 3 days, and a medium containing hydrogen peroxide (0.0045%: 3 times higher than the final concentration that was 0.0015%) was added thereto on the 21st day after cell inoculation. 24 hours later, a dye was added, and measurement was then carried out. Thereafter, 0.02 mL of glutaraldehyde (2.5%: approximately 10 times higher than the final concentration that was 0.25%) was further added, and the resultant cells were then left for 30 minutes or more for fixation. Thereafter, the cells were washed with water and were then subjected to Giemsa staining.

mouse lung tumor cells = settings: 0.015% final, 24 hours, lung tumor slices
Experimental: Whether or not the transformed cells can be selected even in vivo was analyzed. The following experiment was carried out using rasH2 mice (human c-Ha-ras gene-introduced mice; female; 6-week-old). N-ethyl-N-nitrosourea used as an initiator was intraperitoneally administered to each mouse (120 mg/kg/10 mL of physiological saline). From 1 week after the administration of N-ethyl-N-nirosourea, butylhydroxytoluene used as a promoter was orally administered once a week, repeatedly for 7 weeks (400 mg/kg/10 mL of corn oil). Thereafter, the mouse was further bred for 2 weeks. […] The medium was left at rest in a CO2 incubator (5% CO2, 37° C.) for 24 hours, and the sample was then stained with a trypan blue solution (prepared by adding 0.002% trypan blue to phosphate buffered saline) for 10 minutes. It is to be noted that trypan blue is not incorporated into living cells but is incorporated into dead cells, and that it stains the cells blue.

Bhas 42 cells [3] = settings: 0.0015% final, 24 hours
Experimental: In order to observe the morphology of a transformed focus and the morphology of normal cells existing around the transformed focus before and after a treatment with hydrogen peroxide, the following experiment was carried out using 3-methylcholanthrene (MCA) as an initiator. […] Thereafter, 0.2 mL of a medium containing hydrogen peroxide (0.0165%: 11 times higher than the final concentration that was 0.0015%) was added, and the transformed focus was then observed 24 hours after the addition of hydrogen peroxide.

[4] = system: Hu-MI cells and human cancer cells (A549, FLC-5, HCT 116, MKN28); settings: 0.003% final, 24 hours, day 14
Experimental: Whether or not human transformed cells can also be selected by treatment with hydrogen peroxide was analyzed. […] An experimental system was prepared, such that a large number of Hu-MI cells and a small number of human cancer cells (A549 cells: lung cancer; FLC-5 cells: liver cancer; HCT 116 cells: colon cancer; and MKN28 cells: stomach cancer) were simultaneously inoculated and such that they were co-cultured.
The Hu-MI cells (10^4 cells/well) and various types of cancer cells (500 cells/well for FLC-5 cells; and 100 cells/well for other cells) were each inoculated on a 6-well plate (2 mL of medium/well). On the 14th day after the inoculation, 0.2 mL of medium containing hydrogen peroxide (0.033%: 11 times higher than the final concentration that was 0.003%) was added thereto, and the cells were then observed 24 hours after the addition of hydrogen peroxide. As a medium, MEM+10% fetal bovine serum was used.

Bhas 42 cells [5] = settings: depending on concentration and treatment time (1 to 24 hours)
Experimental: 1 to 24 hours later, 0.05 mL of a medium containing alamarBlue or WST-8 (0.01 mL of dye+0.04 mL of medium) was added. Three hours after the addition of the aforementioned medium, a fluorescence level (excitation: 530 nm; measurement: 590 nm) or absorbance (450 nm) was measured (FIG. 2).
In order to find conditions under which normal cells are killed but transformed cells survive, an experiment was carried out to obtain an appropriate concentration of hydrogen peroxide and an appropriate treatment time.

c1ccc2c(c1)cc1ccc3cccc4ccc2c1c34 [BP, benzo(a)pyrene]
selection of the transformed cells (Bhas 42 cells [1]): observed only in the case of a BP treatment+light irradiation group

Cc1ccc2cc3c(ccc4ccccc43)c3c2c1CC3 [MCA, 3-methylcholanthrene]
transformed foci and fluorescence level or absorbance (Bhas 42 cells [2]): increased depending on the dosage

OO [hydrogen peroxide]
trypan blue staining (dead cells) of tumor and non-tumor portion (mouse lung tumor cells): only the non-tumor portion was stained blue
morphology of normal cells around the transformed focus after addition of hydrogen peroxide (Bhas 42 cells [3]; day 21): cytoplasm was denatured
morphology of the transformed focus after addition of hydrogen peroxide (Bhas 42 cells [3]; day 21, foci induced by 1 μg/mL MCA): not changed
fate of Hu-MI cells (considered normal cells) [4]: died and were thereby removed
fate of human cancer cells (A549, FLC-5, HCT 116, MKN28) [4]: remained in the state of colonies and survived
effect on normal cells versus transformed focus wells, absorbance of WST-8 as indicator (Bhas 42 cells [5]): specifically destroys normal cells
